Source: US20240122180A1, “FUNGICIDAL HALOMETHYL KETONES AND HYDRATES AND THEIR MIXTURES” (FMC Corporation, priority 2020, published 2024)

Assays:
[1] = tested on: Phakopsora pachyrhizi (the causal agent of Asian soybean rust); experiment: Test A: preventive spray on soybean seedlings, visual disease rating (100 = 100% control; * 50 ppm, ** 10 ppm, *** 250 ppm); type: in vivo; settings: 100 = 100% disease control, 0 = no control; for pest or weed control at 10 ppm / pest or weed control at 50 ppm: Phakopsora pachyrhizi
Method in brief: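 Soybean seedlings sprayed to run-off with compound suspended in acetone/water with 250 ppm PEG400 surfactant, inoculated next day with P. pachyrhizi spores. Kept 24 h saturated at 22 °C, then 8 days at 22 °C before visual rating of disease control (0-100) relative to controls.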

[2] = tested on: Puccinia recondita f. sp. tritici (the causal agent of wheat leaf rust); experiment: Test B: preventive spray on wheat seedlings, disease rating (100 = 100% control; * 50 ppm, ** 10 ppm, *** 250 ppm); type: in vivo; settings: 100 = 100% disease control, 0 = no control; for pest or weed control at 10 ppm / pest or weed control at 50 ppm: Puccinia recondita
Method in brief: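 Wheat seedlings sprayed to run-off with compound in acetone/water (50/50) containing 250 ppm PEG400, inoculated next day with Puccinia recondita f. sp. tritici spores. Held 24 h saturated at 20° C, then 6 days at 20° C; disease control rated 0–100 relative to controls.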

CCOC(=O)c1nccn1Cc1cccc(O/C=C(\OCC)C(F)(F)F)c1 [compound 367]
pest or weed control at 10 ppm ([1]; 10 ppm test suspension): 0%
pest or weed control at 10 ppm ([2]; 10 ppm test suspension): 0%

CCOC(=O)c1csc(Cc2cccc(O/C=C(\OCC)C(F)(F)F)c2)n1 [compound 370]
Test A disease control rating ([1]; 10 ppm test suspension): 0%
Test B disease control rating ([2]; 10 ppm test suspension): 0%

CCOC(=COc1ccc(NC(=O)C2CC2)cc1)C(F)(F)F [compound 371]
Test A disease control rating ([1]; 50 ppm test suspension): 0%
Test B disease control rating ([2]; 50 ppm test suspension): 77%

CCO/C(=C\Oc1cccc(Cc2nc(C(=O)NCC(F)(F)F)cs2)c1)C(F)(F)F [compound 377]
pest or weed control at 10 ppm ([1]; 10 ppm test suspension): 44%
pest or weed control at 10 ppm ([2]; 10 ppm test suspension): 0%

CCOC(=O)c1ccn(Cc2cc(OC)cc(O/C=C(\OCC)C(F)(F)F)c2)n1 [compound 378]
Test A disease control rating ([1]; 10 ppm test suspension): 0%
Test B disease control rating ([2]; 10 ppm test suspension): 0%

COC(COc1cccc(Cn2cc(Br)cn2)c1)(O[Si](C)(C)C)C(F)(F)F (stereo not drawn) [compound 385]
pest or weed control at 50 ppm ([1]; 50 ppm test suspension): 100%
pest or weed control at 50 ppm ([2]; 50 ppm test suspension): 68%

Cc1ccc(OCC(O)(O)C(F)(F)F)cc1 [compound 396]
Test A disease control rating ([1]; 50 ppm test suspension): 31%
Test B disease control rating ([2]; 50 ppm test suspension): 19%

CCO/C(=C\Oc1cccc(Cc2nc(C(=O)NCC(F)F)cs2)c1)C(F)(F)F [compound 398]
pest or weed control at 10 ppm ([1]; 10 ppm test suspension): 0%
pest or weed control at 10 ppm ([2]; 10 ppm test suspension): 0%

CCOC(=O)c1cnn(Cc2ccc(O/C=C(/OCC)C(F)(F)F)cc2)c1 [compound 399]
pest or weed control at 50 ppm ([1]; 50 ppm test suspension): 97%
pest or weed control at 50 ppm ([2]; 50 ppm test suspension): 0%

CCOC(=O)c1cnn(Cc2ccc(O/C=C(\OCC#N)C(F)(F)F)cc2)c1 [compound 400]
Test A disease control rating ([1]; 50 ppm test suspension): 100%
Test B disease control rating ([2]; 50 ppm test suspension): 0%

CCOC(=O)c1ccn(Cc2cc(C)cc(O/C=C(\OCC)C(F)(F)F)c2)n1 [compound 405]
Test A disease control rating ([1]; 50 ppm test suspension): 0%
Test B disease control rating ([2]; 50 ppm test suspension): 0%

CCOC(=O)c1cnn(Cc2cc(C)cc(O/C=C(\OCC)C(F)(F)F)c2)c1 [compound 406]
Test A disease control rating ([1]; 50 ppm test suspension): 0%
Test B disease control rating ([2]; 50 ppm test suspension): 0%

CCOC(=O)c1ccn(Cc2ccc(OC)c(O/C=C(\OCC)C(F)(F)F)c2)n1 [compound 407]
Test A disease control rating ([1]; 50 ppm test suspension): 0%
Test B disease control rating ([2]; 50 ppm test suspension): 0%

CCOC(=O)c1cnn(Cc2ccc(OC)c(O/C=C(\OCC)C(F)(F)F)c2)c1 [compound 408]
Test A disease control rating ([1]; 50 ppm test suspension): 44%
Test B disease control rating ([2]; 50 ppm test suspension): 0%

CCNC(=O)N1CC(c2ccc(OCC3(C(F)(F)F)OCCO3)cc2)C1 [compound 411]
Test A disease control rating ([1]; 50 ppm test suspension): 87%
Test B disease control rating ([2]; 50 ppm test suspension): 0%

CCNC(=O)N1CC(c2ccc(OC=C(OCC)C(F)(F)F)cc2)C1 [compound 412]
Test A disease control rating ([1]; 50 ppm test suspension): 100%
Test B disease control rating ([2]; 50 ppm test suspension): 0%

CCOC(=O)c1cnn(CCCc2cccc(OCC(O)(O)C(F)(F)F)c2)c1 [compound 417]
pest or weed control at 10 ppm ([1]; 10 ppm test suspension): 0%
pest or weed control at 10 ppm ([2]; 10 ppm test suspension): 0%

CCOC(=O)c1cnn(Cc2ccc(F)c(O/C=C(\OCC)C(F)(F)F)c2)c1 [compound 418]
Test A disease control rating ([1]; 10 ppm test suspension): 0%
Test B disease control rating ([2]; 10 ppm test suspension): 0%

CCOC(=O)c1ccnn1Cc1ccc(F)c(O/C=C(\OCC)C(F)(F)F)c1 [compound 419]
Test A disease control rating ([1]; 10 ppm test suspension): 0%
Test B disease control rating ([2]; 10 ppm test suspension): 0%

CCOC(=O)c1ccn(Cc2ccc(F)c(O/C=C(\OCC)C(F)(F)F)c2)n1 [compound 420]
Test A disease control rating ([1]; 10 ppm test suspension): 0%
Test B disease control rating ([2]; 10 ppm test suspension): 0%

CCOC(=O)c1cnn(CCCc2cccc(O/C=C(\OCC)C(F)(F)F)c2)c1 [compound 421]
Test A disease control rating ([1]; 10 ppm test suspension): 0%
Test B disease control rating ([2]; 10 ppm test suspension): 0%

CCOC(=O)c1cnn(Cc2ccc(O/C=C(\OS(=O)(=O)C(F)(F)F)C(F)(F)F)cc2)c1 [compound 422]
Test A disease control rating ([1]; 50 ppm test suspension): 100%
Test B disease control rating ([2]; 50 ppm test suspension): 84%

OC(O)(COc1cccc(CCl)c1)C(F)(F)F [compound 423]
pest or weed control at 50 ppm ([1]; 50 ppm test suspension): 87%
pest or weed control at 50 ppm ([2]; 50 ppm test suspension): 80%

CCOC(=O)c1cnn(COc2ccc(OCC(O)(O)C(F)(F)F)cc2F)c1 [compound 424]
pest or weed control at 10 ppm ([1]; 10 ppm test suspension): 97%
pest or weed control at 10 ppm ([2]; 10 ppm test suspension): 41%
